Key:
[1] = LogD determination, shake flask method (n-octanol/PBS); type: physicochemical; details: shake-flask n-octanol/PBS pH 7.4 (1:1, 1 mL, pre-saturated); 10 µL (1 µM) radiolabeled peptide; vortexed 1 min, centrifuged 3,000 rpm 10 min; gamma counter read-out; 2-3 experiments each in quintets, mean ± SD
Experimental: The hydrophilicity of the radiolabeled peptides 12–16 was evaluated by determination of their partition coefficient between n-octanol and phosphate buffered saline (PBS, pH 7.4) using the shake flask method. In brief, 10 µL (1 µM) of radiolabeled peptides 12–16 were added to a pre-saturated solution of n-octanol and PBS (1:1, 1 mL) and the tubes were vortexed (1 min) and centrifuged (3,000 rpm, 10 min). Aliquots of 100 µL of each phase were radiometrically measured in a gamma counter and the logD values were calculated by the logarithm of the ratio between the radioactive counts in the octanol fraction and the radioactive counts in the PBS fraction. The experiment was performed 2–3 times, each in quintets, and results are reported by mean values ± standard deviation (SD).

[2] = system: GRP-r overexpressing PC-3 cells; experiment: Internalization assay in PC-3 cells; type: cell-based, human; details: 0.25 pmol, 1.5-2.0 kBq/well, within 30-60 min, percentage of applied dose normalized to 10^6 cells, n = 2-3 in triplicates, approximate
Experimental: Cell culturing of human prostate adenocarcinoma (PC-3) cells and in vitro assays (internalization, receptor saturation binding, and externalization) were performed as previously described and are thus described only in brief.
For the determination of cellular uptake, PC-3 cells were incubated with the radiolabeled peptides [^99mTc(CO)3(L)] (L = 14–16; 0.25 pmol; 1.5–2.0 kBq/well) for different time points to allow binding and internalization. Non-specific receptor binding and internalization was determined by incubating the cells with excess of natural bombesin(1–14) as a receptor blocking agent. At each time point, the supernatant was collected, representing the free radiopeptide fraction. The cell surface receptor bound fraction was obtained by treating the cells with an acidic saline glycine buffer (100 mM NaCl, 50 mM glycine, pH 2.8; 2 times for 5 min, on ice). The internalized fraction was determined by cell lysis with 1 M NaOH (10 min). Fractions of free, receptor-bound, and internalized radiopeptide were radiometrically measured in the gamma counter and calculated as percentage of applied dose normalized to 10^6 cells for all time points (n = 2–3 in triplicates, reported by means ± SD). […]

Hsp90 = details: reported high affinity; read-out: affinity towards Hsp90; cited from earlier work

Compound | logD [1] | applied radioactivity internalized [2] | Kd (Hsp90) [nM]
CCCC[C@H](NC(=O)[C@H](CC(C)C)NC(=O)[C@H](Cc1c[nH]cn1)NC(=O)CNC(=O)[C@@H](NC(=O)[C@H](C)NC(=O)[C@H](Cc1c[nH]c2ccccc12)NC(=O)[C@H](CCC(N)=O)NC(=O)CCNC(=O)CCNC(=O)CCNC(=O)Cn1cc(CN[C@@H](CCCCNC(C)=O)C(=O)O)nn1)C(C)C)C(N)=O [[^99mTc(CO)3(16)], metal not drawn] | -0.44 ± 0.07 | 25%–30% | –
KHSSG [shepherdin(79–83)] | – | – | 80

Source: PMC4078514, “A Bombesin-Shepherdin Radioconjugate Designed for Combined Extra- and Intracellular Targeting” (Pharmaceuticals, 2014)
